Reference: patent US7038014B2, “Polycation-sensing receptor in aquatic species and methods of use thereof” (Brigham and Women's Hospital, priority 1996, dated 2006)
“And” between values parts separate entries of the source, which are not always exact repeats. Equal entries are not always repeated. Where two headings read alike, the source gives them in different places.

Key:
[1] = tested on: isolated urinary bladder of winter flounder (PVCR; thiazide-sensitive NaCl cotransporter); assay: Water reabsorption (Jv) in isolated winter flounder urinary bladder, gravimetric; format: cell-based, winter flounder (Pseudopleuronectes americanus); conditions: for water reabsorption (Jv): control Jv 130±28; for inhibition of water reabsorption: application of agent, concentration not stated (summary); for IC50: read-out: half maximal inhibitory concentration for urinary bladder Jv (IC50); for reversibility of inhibitory effect on Jv: upon removal of agonist
Method: To provide further evidence linking Aquatic PVCRs to fish osmoregulation, isolated urinary bladder of winter founder was used to investigate whether PVCRs modulate epithelial cell ion transport. […] Water reabsorption from the urine stored in urinary bladder allows for the concentrations of both Mg^2+ and Ca^2+ to increase to values as high as 84 mM and 7 mM respectively in marine founders (Elger, E. B., et al., J. Como. Physiol., B157:21 (1987)). 5 Net apical to basolateral water flux (Jv) was measured gravimetrically in 10 minute intervals using individual urinary bladder excised from winter flounder. […] The weight of the bladder was measured before and after the experimental period, wherein the experimental period comprised the period of time that the isolated bladder was exposed to test compound. The compound to be tested (e.g., test compound) was added to both serosal and mucosal solutions. The bladders were dried and weighted as described in Renfro et al. The difference in bladder weight prior to and after exposure to test compound is an indication of water reabsorption by the bladder.
Endocrinol. 127:1064–1071 (1990). […]

SKCaR (SEQ ID NO.: 2) = assay: FURA 2 intracellular calcium assay of SKCaR activation in transfected HEK cells; format: cell-based, dogfish shark (Squalus acanthias)
Text: SKCaR cDNA (SEQ ID NO.: 1) was ligated into the mammalian expression vector PCDNA II and transfected into HEK cells using standard techniques. The presence of SKCaR protein (SEQ ID NO.: 2) in transfected cells was verified by western blotting. Activation of SKCaR (SEQ ID NO.: 2) by extracellular Ca2+, Mg2+ or NaCl was quantified using a well characterized FURA 2 based assay where increases in intracellular Ca2+ produced by SKCaR activation are detected using methodology published previously the Dr. E. Brown's laboratory (Bai, M., S. Quinn, S. Trvedi, O. Kifor, S. H. S. Pearce, M. R. Pollack, K. Krapcho, S. C. Hebert and E. M. Brown. Expression and characterization of inactivating and activating mutations in the human Ca2+-sensing receptor. J. Biol. Chem., 32:19537–19545 (1996)) and expressed as % normalized intracellular calcium response to receptor activation.

mammalian CaRs = target: T1, mammalian CaRs (Bos taurus, UniProt P35384); conditions: literature value; cited from earlier work
T1 sequence (P35384 20-1085): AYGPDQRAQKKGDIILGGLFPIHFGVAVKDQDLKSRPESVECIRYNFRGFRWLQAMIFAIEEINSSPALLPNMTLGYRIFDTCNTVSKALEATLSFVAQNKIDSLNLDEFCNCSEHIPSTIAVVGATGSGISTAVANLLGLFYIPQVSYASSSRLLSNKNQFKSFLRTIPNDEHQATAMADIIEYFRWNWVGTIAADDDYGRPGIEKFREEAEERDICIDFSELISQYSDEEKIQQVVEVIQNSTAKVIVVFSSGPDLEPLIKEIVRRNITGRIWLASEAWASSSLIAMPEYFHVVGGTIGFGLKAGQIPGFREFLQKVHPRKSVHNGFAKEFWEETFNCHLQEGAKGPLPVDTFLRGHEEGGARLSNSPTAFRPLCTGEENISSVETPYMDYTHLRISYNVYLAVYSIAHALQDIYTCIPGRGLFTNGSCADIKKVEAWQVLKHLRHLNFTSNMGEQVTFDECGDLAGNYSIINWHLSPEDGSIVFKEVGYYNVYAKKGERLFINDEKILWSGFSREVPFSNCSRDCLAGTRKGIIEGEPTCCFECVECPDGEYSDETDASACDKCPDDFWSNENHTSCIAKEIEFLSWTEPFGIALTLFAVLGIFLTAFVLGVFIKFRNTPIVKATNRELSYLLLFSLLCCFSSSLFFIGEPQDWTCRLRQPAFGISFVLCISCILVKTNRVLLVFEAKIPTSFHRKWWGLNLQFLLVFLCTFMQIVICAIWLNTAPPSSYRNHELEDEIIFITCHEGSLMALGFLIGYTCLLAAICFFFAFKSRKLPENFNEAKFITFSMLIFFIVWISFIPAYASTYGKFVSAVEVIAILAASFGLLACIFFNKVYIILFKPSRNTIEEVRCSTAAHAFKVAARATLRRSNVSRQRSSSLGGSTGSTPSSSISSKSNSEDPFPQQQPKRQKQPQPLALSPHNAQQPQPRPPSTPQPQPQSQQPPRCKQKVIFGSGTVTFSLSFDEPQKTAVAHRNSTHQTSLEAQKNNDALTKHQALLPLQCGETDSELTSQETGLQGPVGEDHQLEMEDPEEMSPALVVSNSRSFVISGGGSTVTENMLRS

[2] = extracellular NaCl 50 mM, read-out: EC50 for activation of SKCaR
[3] = extracellular NaCl 550 mM, read-out: EC50 for activation of SKCaR

Compound	inhibition of water reabsorption (Jv) ([1]; 100 μM agent)	water reabsorption (Jv) ([1]; 100 μM agent)	inhibition of water reabsorption [1]	IC50 [1]	reversibility of inhibitory effect on Jv [1]	EC50 (SKCaR (SEQ ID NO.: 2); [2])	EC50 (SKCaR (SEQ ID NO.: 2); [3])	also measured
NS(=O)(=O)c1cc2c(cc1Cl)NCNS2(=O)=O [hydrochlorothiazide]	86±2%	18±7 μl/gm/hr	> 85%	–	–	–	–	–
[Gd+3] [Gd^3+, gadolinium]	75±5%	32±18 μl/gm/hr	> 90%	15 µM	reversible	–	–	–
[Ca+2] [Ca2+, calcium]	–	–	–	–	–	< 5000 µM	~18000 µM	effect on sensitivity of SKCaR to Mg2+ (SKCaR (SEQ ID NO.: 2); addition of 3 mM Ca2+, as a function of extracellular NaCl): increases the sensitivity; EC50 (SKCaR (SEQ ID NO.: 2); depending on the extracellular concentration of NaCl, read-out: half maximal activation of SKCaR): 1000 to 15000 µM
[Mg+2] [Mg2+, magnesium]	–	–	–	–	–	< 20000 µM	~80000 µM	concentration range in which SKCaR is activated (SKCaR (SEQ ID NO.: 2); modulated by extracellular NaCl): 5 to 40 mM
neomycin	–	–	> 50%	150 µM	reversible	–	–	inhibition of water reabsorption (Jv) ([1]; 200 μM agent): 52±4%; water reabsorption (Jv) ([1]; 200 μM agent): 63±10 μl/gm/hr; IC50 (mammalian CaRs): 50 µM and 60 to 70 µM
[Cl-].[Na+] [NaCl]	–	–	–	–	–	–	–	effect on sensitivity of SKCaR to Ca2+ (SKCaR (SEQ ID NO.: 2); increasing concentrations of NaCl): reduce the sensitivity
